{"source": "patent US20190345150A1", "about": "“MICROBIOCIDAL OXADIAZOLE DERIVATIVES” (SYNGENTA PARTICIPATIONS AG, priority 2016, published 2019)", "key": {"[1]": {"test_system": "Puccinia recondita f. Sp. Tritici", "assay": "Puccinia recondita f. sp. tritici / wheat / leaf disc curative (brown rust)", "assay_type": "in vivo", "settings": "foliar, 24 h, 200 ppm in the applied formulation, wheat leaf segments cv. Kanzler, curative (applied 1 day after inoculation), compared to untreated control, read-out: disease control", "description": "Leaf disks or leaf segments of various plant species are cut from plants grown in a greenhouse. The cut leaf disks or segments are placed in multiwell plates (24-well format) onto water agar. The leaf disks are sprayed with a test solution before (preventative) or after (curative) inoculation. Compounds to be tested are prepared as DMSO solutions (max. 10 mg/ml) which are diluted to the appropriate concentration with 0.025% Tween20 just before spraying. The inoculated leaf disks or segments are incubated under defined conditions (temperature, relative humidity, light, etc.) according to the respective test system. A single evaluation of disease level is carried out 3 to 14 days after inoculation, depending on the pathosystem. Percent disease control relative to the untreated check leaf disks or segments is then calculated. Wheat leaf segments cv. Kanzler are placed on agar in multiwell plates (24-well format). The leaf segments are then inoculated with a spore suspension of the fungus. Plates were stored in darkness at 19° C. and 75% relative humidity. The formulated test compound diluted in water was applied 1 day after inoculation. The leaf segments were incubated at 19° C. and 75% relative humidity under a light regime of 12 hours light/12 hours darkness in a climate cabinet and the activity of a compound was assessed as percent disease control compared to untreated when an appropriate level of disease damage appears in untreated check leaf segments (6 to 8 days after application)."}, "[2]": {"test_system": "Puccinia recondita f. Sp. Tritici", "assay": "Puccinia recondita f. sp. tritici / wheat / leaf disc preventative (brown rust)", "assay_type": "in vivo", "settings": "foliar, 200 ppm in the applied formulation, wheat leaf segments cv. Kanzler, preventative (inoculated 1 day after application), compared to untreated control, read-out: disease control", "description": "Leaf disks or leaf segments of various plant species are cut from plants grown in a greenhouse. The cut leaf disks or segments are placed in multiwell plates (24-well format) onto water agar. The leaf disks are sprayed with a test solution before (preventative) or after (curative) inoculation. Compounds to be tested are prepared as DMSO solutions (max. 10 mg/ml) which are diluted to the appropriate concentration with 0.025% Tween20 just before spraying. The inoculated leaf disks or segments are incubated under defined conditions (temperature, relative humidity, light, etc.) according to the respective test system. A single evaluation of disease level is carried out 3 to 14 days after inoculation, depending on the pathosystem. Percent disease control relative to the untreated check leaf disks or segments is then calculated. Wheat leaf segments cv. Kanzler were placed on agar in multiwell plates (24-well format) and sprayed with the formulated test compound diluted in water. The leaf disks were inoculated with a spore suspension of the fungus 1 day after application. The inoculated leaf segments were incubated at 19° C. and 75% relative humidity (rh) under a light regime of 12 hours light/12 hours darkness in a climate cabinet and the activity of a compound was assessed as percent disease control compared to untreated when an appropriate level of disease damage appears in untreated check leaf segments (7 to 9 days after application)."}, "[3]": {"test_system": "Glomerella laqenarium (Colletotrichum laqenarium)", "assay": "Glomerella lagenarium liquid culture / cucumber / preventative (anthracnose)", "assay_type": "cell-based", "settings": "20 ppm in the applied formulation, liquid culture in PDB, growth inhibition measured photometrically 3 to 4 days after application, compared to untreated control, read-out: disease control", "description": "Mycelia fragments or conidia suspensions of a fungus prepared either freshly from liquid cultures of the fungus or from cryogenic storage, are directly mixed into nutrient broth. DMSO solutions of the test compound (max. 10 mg/ml) are diluted with 0.025% Tween20 by a factor of 50 and 10 μl of this solution is pipetted into a microtiter plate (96-well format). The nutrient broth containing the fungal spores/mycelia fragments is then added to give an end concentration of the tested compound. The test plates are incubated in the dark at 24° C. and 96% relative humidity. The inhibition of fungal growth is determined photometrically after 2 to 7 days, depending on the pathosystem, and percent antifungal activity relative to the untreated check is calculated. Conidia of the fungus from cryogenic storage are directly mixed into nutrient broth (PDB—potato dextrose broth). After placing a (DMSO) solution of test compound into a microtiter plate (96-well format), the nutrient broth containing the fungal spores is added. The test plates are incubated at 24° C. and the inhibition of growth is measured photometrically 3 to 4 days after application."}}, "data": [{"smiles": "Fc1ccc(OCc2ccc(-c3noc(C(F)(F)F)n3)cc2)cc1", "note": "[Compound 1.6, 3-[4-[(4-fluorophenoxy)methyl]phenyl]-5-(trifluoromethyl)-1,2,4-oxadiazole]", "values": [{"measurement": "pest or weed control at 200 ppm", "setting": "[1]", "value": "≥ 80", "unit": "%"}, {"measurement": "melting point", "value": "174 to 176", "unit": "°C"}]}, {"smiles": "FC(F)(F)c1nc(-c2ccc(COc3ccccc3)cc2)no1", "note": "[Compound 1.7, 3-[4-(phenoxymethyl)phenyl]-5-(trifluoromethyl)-1,2,4-oxadiazole]", "values": [{"measurement": "pest or weed control at 200 ppm", "setting": "[1]", "value": "≥ 80", "unit": "%"}, {"measurement": "melting point", "value": "105 to 107", "unit": "°C"}]}, {"smiles": "FC(F)(F)c1nc(-c2ccc(COc3ccccn3)cc2)no1", "note": "[Compound 1.9, 3-[4-(2-pyridyloxymethyl)phenyl]-5-(trifluoromethyl)-1,2,4-oxadiazole]", "values": [{"measurement": "pest or weed control at 200 ppm", "setting": "[2]", "value": "≥ 80", "unit": "%"}, {"measurement": "pest or weed control at 200 ppm", "setting": "[1]", "value": "≥ 80", "unit": "%"}, {"measurement": "inhibition of growth at 20 ppm", "setting": "[3]", "value": "≥ 80", "unit": "%"}, {"measurement": "melting point", "value": "86 to 88", "unit": "°C"}]}, {"smiles": "Fc1cccc(F)c1OCc1ccc(-c2noc(C(F)(F)F)n2)cc1", "note": "[Compound 1.10, 3-[4-[(2,6-difluorophenoxy)methyl]phenyl]-5-(trifluoromethyl)-1,2,4-oxadiazole]", "values": [{"measurement": "pest or weed control at 200 ppm", "setting": "[1]", "value": "≥ 80", "unit": "%"}, {"measurement": "melting point", "value": "66 to 68", "unit": "°C"}]}, {"smiles": "Fc1c(COc2ccccc2)ccc(-c2noc(C(F)(F)F)n2)c1F", "note": "[Compound 1.12, 3-[2,3-difluoro-4-(phenoxymethyl)phenyl]-5-(trifluoromethyl)-1,2,4-oxadiazole]", "values": [{"measurement": "melting point", "value": "113 to 115", "unit": "°C"}]}, {"smiles": "N#Cc1ccc(OCc2ccc(-c3noc(C(F)(F)F)n3)cc2)nc1", "note": "[Compound 1.14, 6-[[4-[5-(trifluoromethyl)-1,2,4-oxadiazol-3-yl]phenyl]methoxy]pyridine-3-carbonitrile]", "values": [{"measurement": "pest or weed control at 200 ppm", "setting": "[2]", "value": "≥ 80", "unit": "%"}, {"measurement": "inhibition of growth at 20 ppm", "setting": "[3]", "value": "≥ 80", "unit": "%"}, {"measurement": "melting point", "value": "156 to 158", "unit": "°C"}]}, {"smiles": "Cc1ccc(OCc2ccc(-c3noc(C(F)(F)F)n3)cc2)nc1", "note": "[Compound 1.15, 3-[4-[(5-methyl-2-pyridyl)oxymethyl]phenyl]-5-(trifluoromethyl)-1,2,4-ioxadiazole]", "values": [{"measurement": "pest or weed control at 200 ppm", "setting": "[1]", "value": "≥ 80", "unit": "%"}, {"measurement": "melting point", "value": "141 to 143", "unit": "°C"}]}, {"smiles": "Cc1nnc(OCc2ccc(-c3noc(C(F)(F)F)n3)cc2)o1", "note": "[Compound 1.20, 2-methyl-5-[[4-[5-(trifluoromethyl)-1,2,4-oxadiazol-3-yl]phenyl]methoxy]-1,3,4-oxadiazole]", "values": [{"measurement": "inhibition of growth at 20 ppm", "setting": "[3]", "value": "≥ 80", "unit": "%"}]}, {"smiles": "FC(F)(F)c1nc(-c2ccc(COc3ccc(Br)nn3)cc2)no1", "note": "[Compound 1.21, 3-[4-[(6-bromopyridazin-3-yl)oxymethyl]phenyl]-5-(trifluoromethyl)-1,2,4-oxadiazole]", "values": [{"measurement": "inhibition of growth at 20 ppm", "setting": "[3]", "value": "≥ 80", "unit": "%"}]}, {"smiles": "Cc1cccc(OC(C)c2ccc(-c3noc(C(F)(F)F)n3)cc2)n1", "note": "(stereo not shown) [Compound 1.24, 3-[4-[1-[(6-methyl-2-pyridyl)oxy]ethyl]phenyl]-5-(trifluoromethyl)-1,2,4-oxadiazole]", "values": [{"measurement": "inhibition of growth at 20 ppm", "setting": "[3]", "value": "≥ 80", "unit": "%"}]}, {"smiles": "Cc1cccc(OCc2cc(F)c(-c3noc(C(F)(F)F)n3)c(F)c2)n1", "note": "[Compound 1.25, 3-[2,6-difluoro-4-[(6-methyl-2-pyridyl)oxymethyl]phenyl]-5-(trifluoromethyl)-1,2,4-oxadiazole]", "values": [{"measurement": "inhibition of growth at 20 ppm", "setting": "[3]", "value": "≥ 80", "unit": "%"}, {"measurement": "melting point", "value": "65 to 66", "unit": "°C"}]}, {"smiles": "CC1(C)CC(OCc2cc(F)c(-c3noc(C(F)(F)F)n3)c(F)c2)=NO1", "note": "[Compound 1.26, 3-[4-[(5,5-dimethyl-4H-isoxazol-3-yl)oxymethyl]-2,6-difluoro-phenyl]-5-(trifluoromethyl)-1,2,4-oxadiazole]", "values": [{"measurement": "pest or weed control at 200 ppm", "setting": "[2]", "value": "≥ 80", "unit": "%"}, {"measurement": "pest or weed control at 200 ppm", "setting": "[1]", "value": "≥ 80", "unit": "%"}, {"measurement": "inhibition of growth at 20 ppm", "setting": "[3]", "value": "≥ 80", "unit": "%"}]}, {"smiles": "Cc1cccc(OCc2cc(F)c(-c3noc(C(F)(F)F)n3)cc2F)n1", "note": "[Compound 1.27, 3-[2,5-difluoro-4-[(6-methyl-2-pyridyl)oxymethyl]phenyl]-5-(trifluoromethyl)-1,2,4-oxadiazole]", "values": [{"measurement": "melting point", "value": "91 to 94", "unit": "°C"}]}, {"smiles": "CC(=O)OCc1ccc(-c2noc(C(F)(F)F)n2)cc1", "note": "[Compound 2.1, [4-[5-(trifluoromethyl)-1,2,4-oxadiazol-3-yl]phenyl]methyl acetate]", "values": [{"measurement": "pest or weed control at 200 ppm", "setting": "[2]", "value": "≥ 80", "unit": "%"}, {"measurement": "inhibition of growth at 20 ppm", "setting": "[3]", "value": "≥ 80", "unit": "%"}]}, {"smiles": "CC(C)C(=O)OCc1ccc(-c2noc(C(F)(F)F)n2)cc1", "note": "[Compound 2.2, [4-[5-(trifluoromethyl)-1,2,4-oxadiazol-3-yl]phenyl]methyl 2-methylpropanoate]", "values": [{"measurement": "inhibition of growth at 20 ppm", "setting": "[3]", "value": "≥ 80", "unit": "%"}, {"measurement": "melting point", "value": "48 to 50", "unit": "°C"}]}, {"smiles": "CC(C)(C)C(=O)OCc1ccc(-c2noc(C(F)(F)F)n2)cc1", "note": "[Compound 2.3, [4-[5-(trifluoromethyl)-1,2,4-oxadiazol-3-yl]phenyl]methyl 2,2-dimethylpropanoate]", "values": [{"measurement": "inhibition of growth at 20 ppm", "setting": "[3]", "value": "≥ 80", "unit": "%"}]}, {"smiles": "O=C(NCC(F)(F)F)OCc1ccc(-c2noc(C(F)(F)F)n2)cc1", "note": "[Compound 3.3, [4-[5-(trifluoromethyl)-1,2,4-oxadiazol-3-yl]phenyl]methyl N-(2,2,2-trifluoroethyl)carbamate]", "values": [{"measurement": "pest or weed control at 200 ppm", "setting": "[2]", "value": "≥ 80", "unit": "%"}, {"measurement": "pest or weed control at 200 ppm", "setting": "[1]", "value": "≥ 80", "unit": "%"}, {"measurement": "inhibition of growth at 20 ppm", "setting": "[3]", "value": "≥ 80", "unit": "%"}]}, {"smiles": "CON(C)C(=O)OCc1ccc(-c2noc(C(F)(F)F)n2)cc1", "note": "[Compound 3.4, [4-[5-(trifluoromethyl)-1,2,4-oxadiazol-3-yl]phenyl]methyl N-methoxy-N-methyl-carbamate]", "values": [{"measurement": "inhibition of growth at 20 ppm", "setting": "[3]", "value": "≥ 80", "unit": "%"}]}, {"smiles": "CC(OC(=O)N(C)C)c1ccc(-c2noc(C(F)(F)F)n2)cc1", "note": "(stereo not shown) [Compound 3.5, 1-[4-[5-(trifluoromethyl)-1,2,4-oxadiazol-3-yl]phenyl]ethyl N,N-dimethylcarbamate]", "values": [{"measurement": "pest or weed control at 200 ppm", "setting": "[2]", "value": "≥ 80", "unit": "%"}, {"measurement": "pest or weed control at 200 ppm", "setting": "[1]", "value": "≥ 80", "unit": "%"}, {"measurement": "inhibition of growth at 20 ppm", "setting": "[3]", "value": "≥ 80", "unit": "%"}]}, {"smiles": "CN(C(=O)OCc1ccc(-c2noc(C(F)(F)F)n2)cc1)c1ccccn1", "note": "[Compound 3.6, [4-[5-(trifluoromethyl)-1,2,4-oxadiazol-3-yl]phenyl]methyl N-methyl-N-(2-pyridyl)carbamate]", "values": [{"measurement": "melting point", "value": "110 to 112", "unit": "°C"}]}, {"smiles": "CNC(=O)OCc1ccc(-c2noc(C(F)(F)F)n2)cc1", "note": "[Compound 3.7, [4-[5-(trifluoromethyl)-1,2,4-oxadiazol-3-yl]phenyl]methyl N-methylcarbamate]", "values": [{"measurement": "melting point", "value": "100 to 102", "unit": "°C"}]}, {"smiles": "CC(C)=NOCc1ccc(-c2noc(C(F)(F)F)n2)cc1", "note": "[Compound 4.1, N-[[4-[5-(trifluoromethyl)-1,2,4-oxadiazol-3-yl]phenyl]methoxy]propan-2-imine]", "values": [{"measurement": "pest or weed control at 200 ppm", "setting": "[1]", "value": "≥ 80", "unit": "%"}, {"measurement": "melting point", "value": "48 to 52", "unit": "°C"}]}, {"smiles": "CC1=NN(C)C(=O)C1=NOCc1ccc(-c2noc(C(F)(F)F)n2)cc1", "note": "[Compound 4.4, 2,5-dimethyl-4-[[4-[5-(trifluoromethyl)-1,2,4-oxadiazol-3-yl]phenyl]methoxyimino]pyrazol-3-one]", "values": [{"measurement": "inhibition of growth at 20 ppm", "setting": "[3]", "value": "≥ 80", "unit": "%"}, {"measurement": "melting point", "value": "110 to 111", "unit": "°C"}]}]}
